The values that follow come from article PMC9051119 (RSC Advances, 2020).

Data set [1] can be described thus: Equilibrium solubility in model lipid-based formulations. Particulars: for Miscibility in MC-SEDDS (MCF) / Miscibility in LC-SEDDS (LCF): result in words; for Miscibility in LC-SEDDS (LCF) / Solubility in LC-SEDDS: long chain SEDDS.
The conditions of data set [2]: weakly basic APIs; cited from earlier work.
For data set [3] the following is noted: ref unpublished data, cited from earlier work.
Data set [4] in a line: Long term storage stability. Particulars: >6 months at −20 °C.

Regarding `C(=C\c1ccccc1)/CN1CCN(C(c2ccccc2)c2ccccc2)CC1` [Compound 1j, cinnarizine], the “Miscibility in MC-SEDDS (MCF)” value in data set [1] (medium chain SEDDS) is “miscible”.
Consider `C(=C\c1ccccc1)/CN1CCN(C(c2ccccc2)c2ccccc2)CC1` [Compound 1, cinnarizine], for which the pKa (as a rule, the negative logarithm of the acid dissociation constant) in data set [2] is on record as > 8.
With `C(=C\c1ccccc1)/CN1CCN(C(c2ccccc2)c2ccccc2)CC1` [Compound 1c, cinnarizine], the “Miscibility in MC-SEDDS (MCF)” value in data set [1] (medium chain SEDDS) is reported as “miscible”.
Consider `CCCCN(CCCC)CC(O)c1cc(Cl)cc2c1-c1ccc(Cl)cc1/C2=C/c1ccc(Cl)cc1` (stereo not shown) [Compound 2, lumefantrine], for which the pKa in data set [2] is recorded as > 8.
As to `C(=Cc1ccccc1)CN1CCN(C(c2ccccc2)c2ccccc2)CC1.CCCCC(CC)COC(=O)CC(C(=O)OCC(CC)CCCC)S(=O)(=O)O` [Cinnarizine docusate], in data set [3] (long chain SEDDS), the “Miscibility in LC-SEDDS” value is “miscible”. Further, the “Miscibility in MC-SEDDS” value in data set [3] (medium chain SEDDS) is reported as “miscible”.
Turning to `C(=C\c1ccccc1)/CN1CCN(C(c2ccccc2)c2ccccc2)CC1` [Compound 1k, cinnarizine], the “Miscibility in LC-SEDDS (LCF)” value in data set [1] is “miscible”. The “Miscibility in MC-SEDDS (MCF)” value in data set [1] (medium chain SEDDS) is “miscible”.
For the compound `C(=C\c1ccccc1)/CN1CCN(C(c2ccccc2)c2ccccc2)CC1` [Compound 1g, cinnarizine], in data set [1] (value of the main text), the “Solubility in LC-SEDDS” value was 17 mg/g.
For `C(=C\c1ccccc1)/CN1CCN(C(c2ccccc2)c2ccccc2)CC1` [Compound 1b, cinnarizine], the “Miscibility in MC-SEDDS (MCF)” value in data set [1] (medium chain SEDDS) is “miscible”.
On to `C(=C\c1ccccc1)/CN1CCN(C(c2ccccc2)c2ccccc2)CC1` [Compound 1h, cinnarizine], for which, in data set [4], the “Crystallization after long term storage” value was “showed signs of crystallization”.
Regarding `CCCCN(CCCC)CC(O)c1cc(Cl)cc2c1-c1ccc(Cl)cc1/C2=C/c1ccc(Cl)cc1` (stereo not shown) [Compound 2h, lumefantrine], the “LBF solubility enhancement compared to the free base” value in data set [1] (compared to the free base form) was “up to 18 fold”. In addition, the “Miscibility in LC-SEDDS (LCF)” value in data set [1] is reported as “miscible”. Besides, in data set [1] (medium chain SEDDS), the “Miscibility in MC-SEDDS (MCF)” value is listed as “miscible”.
On to `C(=C\c1ccccc1)/CN1CCN(C(c2ccccc2)c2ccccc2)CC1` [Compound 1d, cinnarizine], for which the “Miscibility in LC-SEDDS (LCF)” value in data set [1] is recorded as “miscible”. In addition, the “Miscibility in MC-SEDDS (MCF)” value in data set [1] (medium chain SEDDS) was “miscible”.
Take `CCCCN(CCCC)CC(O)c1cc(Cl)cc2c1-c1ccc(Cl)cc1/C2=C/c1ccc(Cl)cc1` (stereo not shown) [Compound 2k, lumefantrine]: in data set [1] (value of the main text), the “Solubility in LC-SEDDS” value came to 53 mg/g. In addition, in data set [1] (medium chain SEDDS, value of the main text), the “Solubility in MC-SEDDS” value was found to be 66 mg/g.
In the case of `C(=C\c1ccccc1)/CN1CCN(C(c2ccccc2)c2ccccc2)CC1` [Compound 1i, cinnarizine], the “Miscibility in MC-SEDDS (MCF)” value in data set [1] (medium chain SEDDS) is “miscible”.
